Assay results reported in patent US20190298621A1, “METHODS OF TREATMENT OF THE DENTAL PULP AND FILLING ROOT CANALS USING ANTI INFLAMMATORY RINSE SOLUTION AND FILLING COMPOSITION” (DENTSPLY SIRONA Inc., priority 2018, published 2019).

test: Anti-inflammatory agent solubility in solvents; assay type: physicochemical; details: solvent in which the agent is miscible, ambient conditions
Experimental: An anti-inflammatory rinse solution was prepared by mixing anti-inflammatory agent in a solvent in which they are miscible in a vial under ambient conditions as shown in Table 2.

| Structure (SMILES) | Solvent (anti-inflammatory agent solubility in solvents) |
| --- | --- |
| C=CCc1ccc(O)c(OC)c1 [Eugenol] | Ethanol |
| OC[C@@H](O)[C@H](O)[C@@H](O)CO [Xylitol] | Water |
| Cc1c(C)c2c(c(C)c1O)CC[C@@](C)(CCC[C@H](C)CCC[C@H](C)CCCC(C)C)O2 [Vitamin E, α-tocopherol] | Ethanol |
| O=C(/C=C/c1ccccc1)c1ccccc1 [Chalcone] | Ethanol |

same assay, conditions: water

| Structure (SMILES) | solubility in water |
| --- | --- |
| C=CCc1ccc(O)c(OC)c1 [Eugenol] | partially soluble in water |
| Cc1c(C)c2c(c(C)c1O)CC[C@@](C)(CCC[C@H](C)CCC[C@H](C)CCCC(C)C)O2 [Vitamin E, α-tocopherol] | insoluble in water |
| CC(C)Cc1ccc(C(C)C(=O)O)cc1 (stereo not shown) [Ibuprofen] | partially soluble in water |
